Measured values as given in US8414870B2, “Benzylidene substituted 2,4-pentanedione compounds and use thereof as stabilizers” (Sytheon, Ltd., priority 2010, dated 2013).

Columns and labels:
[1] = Photostabilization of avobenzone in ethanol test solution under sun simulator; type: physicochemical
Method: A comparative photostabilization study was conducted comparing the photostabilization efficacy of Synoxy™ AS with Octocrylene and Oxynex® ST in the stabilization of avobenzone. Samples for evaluation were prepared as follows:
Solutions of the photosensitive material and photostabilizer in ethanol were prepared, typically at a 1:1 to 1:5 weight ratio. A base test solution of 3% Avobenzone+5% Octyl salicylate+10% Homoslate in ethanol (the “Test Solution”) was made. Four additional solutions were prepared by adding 2% Synoxyl™ AS, 4% Octocrylene, 2% Oxynex® ST, and 2% Dehydrozingerone, respectively, to four aliquots of the Test Solution.
Samples of each solution were prepared as ultra h n films between two quartz plates so as to obtain a minimum of 90% light transmission over the entire spectrum range of non absorbing chromophores. […] Each sample was then irradiated under sun simulator (754 W/m^2, 2 MED/h, UV dose from 20 to 100 Jules/cm^2) for various durations and light absorption spectra recorded for each sample at given times. The maximal absorption band λmax of each solution was determined before and after irradiation. The amount of the photosensitive materials remaining in solution after irradiation was calculated as the ratio of theft two maximal absorptions.

[2] = Superoxide antioxidant capacity; conditions: method of Dubost et al. 2007
Text: (§1) The antioxidant profile of the compound of Example 1, Synoxyl™ AS, was compared to two widely used commercial antioxidants, natural tocopherol and Oxynex® ST, a proprietary stabilizer based on Diethylhexyl Syringylidene Malonate (DESM), available form EMD Chemicals, Inc., of Gibbstown, N.J., USA. Several test methods were employed.

[3] = Peroxynitrile antioxidant capacity; conditions: method of Zhang et al. 2007
Text: as §1

[4] = Singlet oxygen antioxidant capacity; conditions: method of Zhang et al. 2009
Text: as §1

[5] = Photostabilization of water-soluble dyes, solar simulated light; type: physicochemical; conditions: 0.05% in dye premix; solar simulated light ~40 hours (without stabilizer color lost within about 2 hours)
Method: The stabilizer compound identified as Synoxyl™ AS according to Example 1 was added to two dye premix formulations as set forth in Table 9 in order to evaluate its ability to reduce the amount of dye fading following exposure to solar simulated light. Control samples without the Synoxyl™ AS were also subjected to the same conditions.

[6] = Hydroxyl radical antioxidant capacity; conditions: method of Ou et al. 2002
Text: as §1

[7] = Stabilization of colored shampoo, fluorescent light aging; type: physicochemical; conditions: 0.4 g in 120 g shampoo, ambient temperature, 4 weeks (unmodified shampoo 21.6)
Method: The stabilizer compound according to Example 1, Synoxyl™ AS, was added to a commercial shampoo formulation in order to evaluate its ability to reduce the amount of dye fading following exposure to fluorescent lighting. The sample was prepared by dissolving 0.4 g of Synoxyl™ AS in 5 ml of ethanol and then adding the solution to 120 g of Suave® Natural Fresh Mountain Strawberry Shampoo with agitation and agitated for 15 minutes. A sample of the unmodified shampoo and the modified shampoo are then placed into 20 ml glass scintillation vials. Both sets of vials were weathered under fluorescent light aging at ambient temperature for 4 weeks. The L*a*b coordinates before and after exposure are measured using X-Rite 938 Spectra-densitometer. Color change is expressed as Delta E (ΔE) which is calculated by the formula: ΔE=[(ΔL*)^2+(Δa*)^2+(Δb*)^2]^1/2

[8] = Peroxyl radical antioxidant capacity (ORAC); conditions: method of Ou et al. 2001
Text: as §1

[9] = cited from earlier work

Row | dye fading [5] | change in color, Delta E [7] | Structure (SMILES) | stabilization of photosensitive compounds [1] | Superoxide [2] | Peroxynitrile [3] [Trolox equivalent/gm] | Singlet oxygen [4] | Hydroxyl [6] | Peroxyl (ORAC) [8] | solubility in chloroform ([9]; chloroform) | solubility in ether ([9]; ether) | solubility in methylene chloride ([9]; methylene chloride)
1 |  |  | COc1cc(/C=C/C(C)=O)ccc1O [Dehydrozingerone] | fails to stabilize photosensitive compounds |  |  |  |  |  |  |  | 
2 | did not fade | 12.3 | COc1cc(C=C(C(C)=O)C(C)=O)ccc1O [Synoxyl ™ AS, 3-(4-Hydroxy, 3-methoxybenzylidene)-2,4-pentanedione] |  | 1,042 Trolox equivalent/gm | 9 | 13,283 Trolox equivalent/gm | 47,180 Trolox equivalent/gm | 14,363 Trolox equivalent/gm |  |  | 
3 |  |  | CCCCC(CC)COC(=O)C(=Cc1cc(OC)c(O)c(OC)c1)C(=O)OCC(CC)CCCC (stereo not shown) [Oxynex ® ST, Diethylhexyl Syringylidene Malonate] |  | 0 Trolox equivalent/gm | 0 | 4,532 Trolox equivalent/gm | 0 Trolox equivalent/gm | 550 Trolox equivalent/gm |  |  | 
4 |  |  | CC1=C(/C=C/C(C)=C/C=C/C(C)=C/C(=O)O)C(C)(C)CCC1 [tretinoin, all-trans-retinoic acid] |  |  |  |  |  |  | slightly soluble | sparingly soluble | soluble
